Experimental data published in US4816438A, “Insulin-selective somatostatin analogs” (The Salk Institute for Biological Studies, priority 1987, dated 1989).
Where a SMILES comes first, the peptide text is derived from it. Bridges are numbered along the chain shown (N, C = ends).

Key:
[1] = tested on: cells of rat pituitary glands; test: in vitro radioimmunoassays of growth hormone release from cultured rat pituitary cells, side-by-side with somatostatin-14; format: cell-based; settings: comparative testing in rat pituitary cell cultures
Protocol: To determine the effectiveness of the peptides to inhibit the release of insulin, in vitro radioimmunoassays are carried out using aSS-28, [Lys^23 ]-aSS-28 and aSS(15-28) in side-by-side comparison with equimolar concentrations of somotostatin-14 having a known effectiveness to inhibit the release of growth hormone induced by the application of isobutyl methyl xanthine to pituitary cells. Cultures are used which include cells of rat pituitary glands removed some four to five days previously in a system that minimizes enzymatic degradation, generally following the procedure set forth in Vale et al., Methods in Enzymology, Hormones and Cyclic Nucleotides (1975) Vol. 37, p. 82. Both cultures of a defined standard medium and cultures which are considered optimal for the secretion of growth hormone, as a result of having additions of either 2% or 10% of serum from a foetal calf, are used for the comparative testing.

[2] = synthetic SS-28; literature report; cited from earlier work

Compound | biological activity / potency relative to aSS-28 [1] | potency when administered in vivo [2]
CC(C)C[C@H](NC(=O)[C@H](CC(N)=O)NC(=O)[C@H](CC(N)=O)NC(=O)[C@@H](NC(=O)[C@H](CO)NC(=O)[C@H](CC(=O)O)NC(=O)[C@@H](NC(=O)[C@@H](N)CO)C(C)C)[C@@H](C)O)C(=O)N1CCC[C@H]1C(=O)N1CCC[C@H]1C(=O)N[C@@H](CCCNC(=N)N)C(=O)N[C@@H](CCC(=O)O)C(=O)N[C@@H](CCCNC(=N)N)C(=O)N[C@@H](CCCCN)C(=O)N[C@@H](C)C(=O)NCC(=O)N[C@H]1CSSC[C@@H](C(=O)O)NC(=O)[C@H](CO)NC(=O)[C@H]([C@@H](C)O)NC(=O)[C@H](Cc2ccccc2)NC(=O)CNC(=O)[C@H](CCCCN)NC(=O)[C@H](Cc2c[nH]c3ccccc23)NC(=O)[C@H](Cc2ccc(O)cc2)NC(=O)[C@H](Cc2ccccc2)NC(=O)[C@H](CC(N)=O)NC(=O)[C@H](CCCCN)NC1=O [[Lys^23]-aSS-28] (H-SVDSTNNLPPRERKAGCKNFYWKGFTSC-OH; disulfide 17-28) | similarly biologically active although having somewhat lower potencies | 
somatostatin-28 [SS-28] |  | increased potency
